Reference: EP1149092B1, “4- AND 5-ALKYNYLOXINDOLES AND 4- AND 5-ALKENYLOXINDOLES” (F. HOFFMANN-LA ROCHE AG, priority 1998, dated 2000)

These compounds were tested on MMP-3 (assay: MG-63 Cell-Based Assay, MMP-3 release after IL-1β stimulation (ELISA)). Details: Homo sapiens, MG63 cells, IL-1β stimulated, 24 hours with compound, read-out: IC50 (µM) in MG63 Cells MMP3.
Excerpt: (§1) The MG63 cell line, a human osteosarcoma cell line, was purchased from American Type Culture Collection (ATCC; Rockville, MD) and grown in the medium recommended by ATCC. When stimulated with human IL-1β , MG63 cells release matrix metalloproteinase 3 (MMP-3), an AP-1 dependent inflammatory mediator and IL-6, a NF-κB-dependent mediator. In this assay the ability of a test compound to block MMP-3 expression and not block IL-6 expression is an indication that the compound is a selective inhibitor of the AP-1 transcription pathway.
(§2) On day 1 the cells were plated at 2.5X10^4 cells/well in 96 well plates. After 24 hours, dexamethasone (the assay control) (Sigma, St. Louis, MO) and the test compounds were diluted to appropriate concentrations and added to the MG63 cells. The cells were incubated with the compounds for 24 hours after which the supernatants were removed and analyzed by ELISA.
(§3) In the ELISA, 96 well plates were coated with antibody to MMP-3 or IL-6. Supernatants were added to the coated plates and any antigen (MMP-3 or IL-6) in the supernatant bound to the antibody coated on the plates. The plates were then washed with PBS containing 0.05% Tween 20 (Sigma, St. Louis, MO) and the biotinylated secondary antibody was added. This secondary antibody binds to the already bound antigen creating a "sandwich effect". Plates were washed as described above and horseradish peroxidase (HRP)-streptavidin conjugate (Sigma, St. Louis, MO) was added to the plates. HRP-streptavidin bound to the biotin-antibody conjugate. The plates were washed and TMB substrate (Kirkegaard and Perry Labs, Gaithersburg, MD) was added to the wells. This substrate changes color in the presence of HRP-streptavidin. The intensity of the color (measured at 450 nm) is proportional to the amount of MMP-3 or IL-6 produced by the MG63 cells upon exposure to IL-1β and the test compounds. Optical density values were converted to concentration (pg/ml or Units/ml) based on a standard curve included in the assay. IC50 values for each test compound were determined from the linear regression of a plot of the logarithm of the concentration of compound versus amount of MMP-3 or IL-6 secreted. (The MMP-3 antibodies were prepared in-house using standard hybridoma technology and the IL-6 antibodies were obtained from either Genzyme, Cambridge, MA or Pharmingen, San Diego, CA.).

In the case of `C#CC(O)c1ccc(OC)c(O)c1` (stereo not drawn) [GG, 3-Hydroxy-3-(3-hydroxy-4-methoxyphenyl)-1-propyne], the IC50 is reported as under 12.5 µM.

What follows are compounds tested on IL-6 (assay: MG-63 Cell-Based Assay, IL-6 release after IL-1β stimulation (ELISA)). Details: Homo sapiens, MG63 cells, IL-1β stimulated, 24 hours with compound, read-out: IC50 (µM) in MG63 Cells IL6.
Excerpt: as §1, §2, §3

Compound `C#CC(O)c1ccc(OC)c(O)c1` (stereo not drawn) [GG, 3-Hydroxy-3-(3-hydroxy-4-methoxyphenyl)-1-propyne] has an IC50 of under 20 µM.

Each compound was assayed against rat SAPK (isoform β) (Rattus norvegicus, UniProt P49187) (assay: SAPK FlashPlate Assay (inhibition of cJun phosphorylation)). Details: GST-cJun substrate, 30 minutes at 37 °C.
Sequence of rat SAPK (isoform β) (P49187 whole entry, canonical isoform): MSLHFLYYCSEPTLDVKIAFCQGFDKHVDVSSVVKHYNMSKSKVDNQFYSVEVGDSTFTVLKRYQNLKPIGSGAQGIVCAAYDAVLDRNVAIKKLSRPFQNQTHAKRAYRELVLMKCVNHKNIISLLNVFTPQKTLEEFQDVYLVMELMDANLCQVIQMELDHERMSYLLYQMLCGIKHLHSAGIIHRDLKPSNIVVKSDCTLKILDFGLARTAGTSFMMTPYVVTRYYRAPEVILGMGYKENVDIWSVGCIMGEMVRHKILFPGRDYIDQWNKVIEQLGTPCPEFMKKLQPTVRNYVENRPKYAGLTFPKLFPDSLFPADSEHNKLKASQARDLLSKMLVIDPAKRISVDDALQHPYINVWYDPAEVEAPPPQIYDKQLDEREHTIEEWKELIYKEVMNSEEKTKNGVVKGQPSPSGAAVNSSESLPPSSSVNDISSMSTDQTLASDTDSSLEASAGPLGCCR
Assay type: biochemical
Experimental: "IC50" refers to the concentration of a particular 4- or 5-alkynyloxindole or 4-or 5-alkenyloxindole required to inhibit 50% of cJun phosphorylation, which is a measure of inhibition of SAPK activity. IC50 can be measured, inter alia, using the assay described herein in Example 102.
Human JNK is highly homologous to rat SAPK. To measure the inhibitory activity of test compounds, the compounds were tested in the rat SAPK assay.
For the SAPK assay, purified GST-cJun (a chimeric protein containing cJun, a natural substrate of JNK) was coated on 96 well FlashPlates (New England Nuclear, Boston, MA). Purified rat SAPK (isoform β, Kyriakis et al. supra) was preincubated with preparations containing MEKK-1 and MKK4 for 30 minutes at 37 °C in assay buffer containing 25 mM HEPES, pH 7.5, 150 mM NaCl, 20 mM MgCl2, 2 mM DTT, 0.001% Tween 20, 1 µM ATP freshly added. In the preincubation step, MEKK-1 phosphorylates and activates MKK-4, which in tum phosphorylates and activates SAPK. The activated SAPK was then added to the cJun coated FlashPlates along with ^33P-ATP (0.32 µCi per reaction) and test compounds. The plates were incubated for 30 minutes at 37 °C, then washed with PBS, 0.01% Tween 20, and counted in the Topcount scintillation counter (Packard Instrument Co., Downers Grove, IL). Dilutions of compounds were tested in duplicate in each assay. The percent inhibition of cJun phosphorylation (a measure of inhibition of SAPK activity) was determined by the following formula: [formula] where "test compound" refers to the average counts per minute of the test duplicates, "nonspecific" refers to the average counts per minute when no SAPK was added, and "total" refers to the average counts per minute when no compound was added.

`COc1cc[nH]c1/C=C1\C(=O)Nc2ccc([N+](=O)[O-])c(C#Cc3cccnc3)c21` [GGG, (Z)-1,3-Dihydro-3-[(3-methoxy-1H-pyrrol-2-yl)methylene]-5-nitro-4-[(3-pyridinyl)ethynyl]-2H-indol-2-one] and `COc1cc[nH]c1/C=C1\C(=O)Nc2ccc(N)c(C#Cc3cccnc3)c21` [HHH, (Z)-5-Amino-1,3-dihydro-3-[(3-methoxy-1H-pyrrol-2-yl)methylene]-4-[(3-pyridinyl)ethynyl]-2H-indol-2-one] cannot be ordered by IC50: under 1 µM for the first, under 1 µM for the second.

`COc1cc[nH]c1/C=C1\C(=O)Nc2cccc(C#CC(O)c3ccc(NC(C)=O)cc3)c21` (racemic) [BBB, rac-(Z)-4-[3-(4-Acetamidophenyl)-3-hydroxy-1-propynyl]-1,3-dihydro-3-[(3-methoxy-1H-pyrrol-2-yl)methylene]-2H-indol-2-one] and `COc1cc[nH]c1/C=C1\C(=O)Nc2cccc(C#CC(O)c3ccc(O)cc3)c21` (racemic) [Q, rac-(Z)-1,3-Dihydro-4-[3-hydroxy-3-(4-hydroxyphenyl)-1-propynyl]-3-[(3-methoxy-1H-pyrrol-2-yl)methylene]-2H-indol-2-one] cannot be ordered by IC50: under 1 µM for the first, under 1 µM for the second.

`COc1cc[nH]c1/C=C1\C(=O)Nc2cccc(C#CC(O)c3ccc(OCCN4CCOCC4)cc3)c21` (racemic) [Compound TT, rac-(Z)-1,3-Dihydro-4-[3-hydroxy-3-[4-[2-(4-morpholinyl)-ethoxy]-phenyl]-1-propynyl]-3-[(3-methoxy-1H-pyrrol-2-yl)methylene]-2H-indol-2-one] and `COc1cc(C(O)C#Cc2cccc3c2/C(=C/c2[nH]ccc2OC)C(=O)N3)ccc1OCCN1CCOCC1` (racemic) [Compound MM, rac-(Z)-1,3-Dihydro-4-[3-hydroxy-3-[3-methoxy-4-[2-(4-morpholinyl)-ethoxy]-phenyl]-1-propynyl]-3-[(3-methoxy-1H-pyrrol-2-yl)methylene]-2H-indol-2-one] cannot be ordered by IC50: under 1 µM for the first, under 1 µM for the second.

`COc1ccccc1C(O)C#Cc1cccc2c1/C(=C/c1[nH]ccc1OC)C(=O)N2` (racemic) [Compound M, rac-(Z)-1,3-Dihydro-4-[3-hydroxy-3-(2-methoxyphenyl)-1-propynyl]-3-[(3-methoxy-1H-pyrrol-2-yl)methylene]-2H-indol-2-one] and `COc1cc[nH]c1/C=C1\C(=O)Nc2cccc(C#CC(O)c3sccc3OC)c21` (racemic) [OO, rac-(Z)-1,3-Dihydro-4-[3-hydroxy-3-(3-methoxy-2-thiophenyl)-1-propynyl]-3-[(3-methoxy-1H-pyrrol-2-yl)methylene]-2H-indol-2-one] cannot be ordered by IC50: under 1 µM for the first, under 1 µM for the second.

`COc1cc[nH]c1/C=C1\C(=O)Nc2cccc(C#CC(O)c3ccco3)c21` (racemic) [VV, rac-(Z)-1,3-Dihydro-4-[3-(2-furanyl)-3-hydroxy-1-propynyl]-3-[(3-methoxy-1H-pyrrol-2-yl)methylene]-2H-indol-2-one] and `COc1cc[nH]c1/C=C1\C(=O)Nc2cccc(C#CC(O)c3ccc[nH]3)c21` (racemic) [DD, rac-(Z)-1,3-Dihydro-4-[3-hydroxy-3-(1H-pyrrol-2-yl)-1-propynyl]-3-[(3-methoxy-1H-pyrrol-2-yl)methylene]-2H-indol-2-one] cannot be ordered by IC50: under 1 µM for the first, under 1 µM for the second.

`COc1ccc(C(O)C#Cc2cccc3c2/C(=C/c2[nH]ccc2OC)C(=O)N3)cc1OC` (racemic) [FF, rac-(Z)-1,3-Dihydro-4-[3-(3,4-dimethoxyphenyl)-3-hydroxy-1-propynyl]-3-[(3-methoxy-1H-pyrrol-2-yl)methylene]-2H-indol-2-one] and `COc1ccc(C(O)C#Cc2cccc3c2/C(=C/c2[nH]ccc2OC)C(=O)N3)cc1O` (racemic) [HH, rac-(Z)-1,3-Dihydro-4-[3-hydroxy-3-(3-hydroxy-4-methoxyphenyl)-1-propynyl]-3-[(3-methoxy-1H-pyrrol-2-yl)methylene]-2H-indol-2-one] cannot be ordered by IC50: under 1 µM for the first, under 1 µM for the second.

`COc1cc(C(O)C#Cc2cccc3c2/C(=C/c2[nH]ccc2OC)C(=O)N3)ccc1OCC(=O)O` (racemic) [RR, rac-(Z)-[4-[3-[2,3-Dihydro-3-[(3-methoxy-1H-pyrrol-2-yl)methylene]-2-oxo-1H-indol-4-yl]-1-hydroxy-2-propynyl]-2-methoxyphenoxy]acetic acid] and `COc1cc[nH]c1/C=C1\C(=O)Nc2cccc(C#CC(O)c3ccc(OCC(=O)O)cc3)c21` (racemic) [YY, rac-(Z)-[4-[3-[2,3-dihydro-3-[(3-methoxy-1H-pyrrol-2-yl)methylene]-2-oxo-1H-indol-4-yl]-1-hydroxy-2-propynyl]phenoxy]acetic acid] cannot be ordered by IC50: under 1 µM for the first, under 1 µM for the second.

`COc1cc[nH]c1/C=C1\C(=O)Nc2cccc(C#CC(O)c3cc(OC)c4c(c3)OCO4)c21` (racemic) [SS, rac-(Z)-4-[3-hydroxy-3-(4-methoxy-1,3-benzodioxol-6-yl)-1-propynyl]-1,3-dihydro-3-[(3-methoxy-1H-pyrrol-2-yl)methylene]-2H-indol-2-one] and `COc1cc(OC)c(C(O)C#Cc2cccc3c2/C(=C/c2[nH]ccc2OC)C(=O)N3)cc1OC` (racemic) [PP, rac-(Z)-1,3-Dihydro-4-[3-hydroxy-3-(2,4,5-trimethoxyphenyl)-1-propynyl]-3-[(3-methoxy-1H-pyrrol-2-yl)methylene]-2H-indol-2-one] cannot be ordered by IC50: under 1 µM for the first, under 1 µM for the second.

`COc1cc[nH]c1/C=C1\C(=O)Nc2cccc(C#CC(O)c3ccc(OCC(=O)OC(C)(C)C)cc3)c21` (racemic) [XX, rac-(Z)-[4-[3-[2,3-dihydro-3-[(3-methoxy-1H-pyrrol-2-yl)methylene]-2-oxo-1H-indol-4-yl]-1-hydroxy-2-propynyl]phenoxy]acetic acid 1,1-dimethylethyl ester] and `COc1cc[nH]c1/C=C1\C(=O)Nc2cccc(C#CC(O)c3ccc(OCCCN(C)C)cc3)c21` (racemic) [V, rac-(Z)-1,3-Dihydro-4-[3-[4-(3-dimethylaminopropoxy)-phenyl]-3-hydroxy-1-propynyl]-3-[(3-methoxy-1H-pyrrol-2-yl)methylene]-2H-indol-2-one] cannot be ordered by IC50: under 1 µM for the first, 0.034 µM for the second.

`COc1cc[nH]c1/C=C1\C(=O)Nc2cccc(C#CC(O)c3ccc(Cl)cc3OCSC)c21` (racemic) [UU, rac-(Z)-4-[3-(4-Chloro-2-methylsulfanylmethoxyphenyl)-3-hydroxy-1-propynyl]-1,3-dihydro-3-[(3-methoxy-1H-pyrrol-2-yl)methylene]-2H-indol-2-one] and `COc1cc[nH]c1/C=C1\C(=O)Nc2cccc(C#Cc3ccncc3)c21` [EEE, (Z)-1,3-Dihydro-3-[(3-methoxy-1 H-pyrrol-2-yl)methylene]-4-[(4-pyridinyl)ethynyl]-2H-indol-2-one] cannot be ordered by IC50: under 1 µM for the first, under 1 µM for the second.

`COc1cc[nH]c1/C=C1\C(=O)Nc2cccc(C#CC(C)(O)c3ccccc3)c21` (racemic) [Compound T, rac-(Z)-1,3-Dihydro-4-[3-hydroxy-3-phenyl-1-butynyl]-3-[(3-methoxy-1H-pyrrol-2-yl)methylene]-2H-indol-2-one] and `COc1cc[nH]c1/C=C1\C(=O)Nc2cccc(C#Cc3ccccn3)c21` [DDD, (Z)-1,3-Dihydro-3-[(3-methoxy-1H-pyrrol-2-yl)methylene]-4-[(2-pyridinyl)ethynyl]-2H-indol-2-one] cannot be ordered by IC50: 0.253 µM for the first, under 1 µM for the second.
